Experimental data from US12156922B2, “Copper-containing complex and uses thereof” (Bar-Ilan University, priority 2017, dated 2024).
Several values for one entry are separate records, joined by “and”; a condition that tells them apart may be missing. Equal entries are not always repeated. Blank lines part the entries; values can stand above or below the molecule they belong to. No end group written: not given here. *: point of attachment. MTSSL = S-(1-oxyl-2,2,5,5-tetramethyl-2,5-dihydro-1H-pyrrol-3-yl)methyl methanesulfonothioate spin label conjugate, CC1(C)C=C(CS*)C(C)(C)N1[O]

How the values were obtained:
[1] = EPR of ATSM-Cu(II) complex after addition of ligands; assay type: physicochemical; conditions: 0.1 mM ATSM-Cu(II), 4 molar equivalents of ligand; 30% DMSO, 0.1 M phosphate buffer (pH 7.4)
Protocol: (§1) The stability of the ATSM-Cu(II) complex was tested by using UV-visible spectrophotometry. […] In order to confirm the dissociation of ATSM-Cu(II) complex or the formation of copper complex with ligands or copper chelation by ligands, the effect of ligands on ATSM-Cu(II) was also tested using electron paramagnetic resonance (EPR) spectroscopy.
The stability of ASTM-Cu(II) complex was further studied by EPR spectroscopy. 0.1 mM of ATSM-Cu(II) complex was prepared in 30% DMSO and 0.1 M phosphate buffer (pH 7.4).

[2] = UV-visible titration of ATSM-Cu(II) complex with Cu(II) chelators and peptides (311 nm / 465 nm); assay type: physicochemical; conditions: for molar equivalents sufficient/needed to remove copper from the ATSM-Cu(II) complex: 30% DMSO in 0.1 M phosphate buffer (pH 7.4)
Protocol: as §1
Stock solutions of CuCl2 (10 mM), 1,10-phenanthroline (10 mM), IDA (10 mM), and L-histidine (10 mM), NTA (5 mM) and Pep1 (5 mM) were prepared in ultrapure water (Milli-Q®). Stock solutions (1 mM) of HAGAH, HGGH and HTGMK peptides were prepared by dissolution in 0.1 M phosphate buffer (pH 7.4).
In order to facilitate the solubility of ATSM-Cu(II) complex, all the measurements were carried out in 30% DMSO in 0.1 M phosphate buffer (pH 7.4), at physiological conditions.

[3] = UV-VIS titration of peptides with Cu(I), absorption at 265 nm; assay type: binding; conditions: for absorption at 265 nm upon addition of Cu(I) (Cu(I) binding): 3-20 molar equivalents of Cu(I)
Protocol: UV-Visible-IR absorption spectra were obtained using a Cary® Bio 100 spectrophotometer, or using a Chirascan™ spectrometer (Applied Photophysics), at room temperature with a 1 mm optical path-length cell. Acetone was used as a reference. Typically, peptides were measured at a concentration of 0.3 mg/ml. Difference absorption spectra were obtained for peptides titrated with Cu(I) from 200 to 600 nm with a step size and a bandwidth of 0.5 nm.
Cu(I) was added to peptide solutions in the form of tetrakis(acetonitrile)copper(I) hexafluorophosphate under nitrogen gas in order to preserve anaerobic conditions. No Cu(II) signal was observed by EPR, thereby confirming the purity of the Cu(I).
In order to gain further insight into Cu(I) coordination, UV-VIS measurements were performed on the various peptides (as described n the Materials and Methods section hereinabove).

[4] = Low temperature CW-EPR of Cu(II) binding to Ctr1 N-terminal peptides in KPi buffer; conditions: for percentage of Cu(II) bound to peptide (species other than 4O coordination): 130 K
Protocol: Continuous wave electron […] (CW-EPR) spectra were recorded using an Elexsys™ E500 spectrometer (Bruker) operating at 9.0-9.5 GHz, equipped with a super-high-sensitivity CW resonator. The spectra were recorded at room temperature (RT; 295±2 K) or at low temperature (130±5 K) at a microwave power of 20.0 mW, modulation amplitude of 1.0 G, time constant of 60 or 80 milliseconds, and receiver gain of 60.0 dB. The samples were measured in 0.8 mm or 1.0 mm capillary quartz tubes (VitroCom) at RT. Solutions that were measured at low temperature were mixed with 20% glycerol, and measured in a 3.0 mm or 4.0 mm Wilmad® quartz tube.
Simulation of CW-EPR spectra was performed using MATLAB, with the EasySpin™ toolbox, according to procedures described by Stoll & Schweiger [J Magn Reson 2006, 178:42-55]. In fitting a spectrum to a simulation, emphasis is placed on small peaks of in the region of under 3000G.
The abovementioned peptides Pep1-Pep5 were investigated by CW-EPR measurements at low temperature (130 K), in the presence of different concentrations of Cu(II). The data were subsequently incorporated into simulations using the EasySpin™ tool box, and the first coordination sphere of Cu(II) was determined for each peptide, according to procedures described in Peisach & Blumberg [Arch Biochem Biophys 1974, 165:691-708]. The experimental data and comparisons with simulated data (including parameters derived from the simulations) for peptides Pep1-Pep5, at a variety of peptide:Cu(II) molar ratios, are presented in FIGS. 7-11. FIG. 12 presents the experimental data and comparisons with simulated data for peptides Pep1-Pep5 at a peptide:Cu(II) molar ratio of 1:1.
The simulation for each peptide took into account two Cu(II) species. The first species corresponds to free Cu(II) ions in water, where Cu(II) is coordinated to four oxygen atoms (4O coordination), with g∥=2.39±0.005, A∥=154±2.0 G. The second species corresponds to Cu(II) that is bound to the peptide with coordination of 3N1O or 2N2O.

[5] = Reduction of Cu(II) to Cu(I) by ascorbate in the presence of peptide, followed by room temperature EPR intensity; conditions: 2 mM ascorbate, peptide:ascorbate:Cu(II) 1:2:2; for Cu(II) reduced: within 4000 seconds, room temperature
Protocol: For measuring Cu(II) reduction by EPR spectroscopy, 20 μl of aqueous CuCl2 solution (2 mM) was added to 20 μl of a solution of a tested peptide (1 mM). At time zero, 20 μl of ascorbic acid solution (2 mM) was added, and the solution was mixed under anaerobic conditions. Cu(II) EPR signal intensity (at the maximum EPR signal intensity (g⊥ position)) was measured as a function of time.
The effects of the mutations of the Pep2-Pep5 peptides on the reduction of Cu(II) to Cu(I) was then investigated, by evaluating the room temperature (RT) change in EPR intensity over time, as Cu(I) is EPR-silent. Reduction of Cu(II) was effected in the presence of 2 mM ascorbate (a peptide:ascorbate:Cu(II) molar ratio of 1:2:2). For comparison, the reduction of free Cu(II) in buffer was also measured.

[6] = peptide:Cu(II) molar ratio 1:0.6
[7] = peptide:Cu(II) molar ratio 1:0.8
[8] = peptide:Cu(II) molar ratio 1:1.4
[9] = peptide:Cu(II) molar ratio 1:0.4

Molecule: c1cnc2c(c1)ccc1cccnc12 [1,10-phenanthroline]
effect on electron paramagnetic spectrum of ATSM-Cu(II) complex [1]: induced significant changes
molar equivalents sufficient/needed to remove copper from the ATSM-Cu(II) complex [2]: two molar equivalents

Molecule: CN=C([S-])N/N=C(C)/C(C)=N/NC([S-])=NC.[Cu+2] [ATSM-Cu(II), Cu(II)-diacetyl-bis(N4-methylthiosemicarbazone)]
stability of ATSM-Cu(II) complex in the presence of Cu(II) ligands ([2]; overall conclusion from UV-visible and EPR): may be unstable in a cellular environment

Molecule: O=C(O)CNCC(=O)O [IDA, Imino-diacetic acid]
effect on electron paramagnetic spectrum of ATSM-Cu(II) complex [1]: induced significant changes
molar equivalents sufficient/needed to remove copper from the ATSM-Cu(II) complex [2]: at least four molar equivalents

Molecule: N[C@@H](Cc1c[nH]cn1)C(=O)O [L-His, L-histidine]
effect on electron paramagnetic spectrum of ATSM-Cu(II) complex [1]: induced significant changes
molar equivalents sufficient/needed to remove copper from the ATSM-Cu(II) complex [2]: at least four molar equivalents

Molecule: O=C(O)CN(CC(=O)O)CC(=O)O [NTA, nitrilotriacetic acid]
effect on electron paramagnetic spectrum of ATSM-Cu(II) complex [1]: induced significant changes
molar equivalents sufficient/needed to remove copper from the ATSM-Cu(II) complex [2]: at least four molar equivalents

Molecule: HTGMK
molar equivalents sufficient/needed to remove copper from the ATSM-Cu(II) complex [2]: one molar equivalent

Cu(I):peptide molar ratio at which binding occurred ([3]; titration with Cu(I)): exceeding 5.0
percentage of Cu(II) bound to peptide (species other than 4O coordination) [4, 6]: 70%
percentage of Cu(II) bound to peptide (species other than 4O coordination) [4, 7]: 70%
percentage of Cu(II) bound to peptide (species other than 4O coordination) [4, 8]: 63%
percentage of Cu(II) bound to peptide (species other than 4O coordination) ([4]; peptide:Cu(II) molar ratio 1:2): 55%
percentage of Cu(II) bound to peptide (species other than 4O coordination) ([4]; peptide:Cu(II) molar ratio 1:3): 55%
Molecule: MDASHHMGMSYMDS (Pep3 peptide amino acid sequence)
Cu(II) reduced [5]: about 5%

percentage of Cu(II) bound to peptide (species other than 4O coordination) [4, 9]: 70%
percentage of Cu(II) bound to peptide (species other than 4O coordination) [4, 6]: 80%
percentage of Cu(II) bound to peptide (species other than 4O coordination) [4, 7]: 85%
percentage of Cu(II) bound to peptide (species other than 4O coordination) ([4]; peptide:Cu(II) molar ratio 1:1): 90%
percentage of Cu(II) bound to peptide (species other than 4O coordination) [4, 8]: 92%
percentage of Cu(II) bound to peptide (species other than 4O coordination) ([4]; peptide:Cu(II) molar ratio 1:2): 94%
percentage of Cu(II) bound to peptide (species other than 4O coordination) ([4]; peptide:Cu(II) molar ratio 1:3): 97% and 100%
Molecule: MDHSAHMGMSYMDS (Pep4 peptide amino acid sequence)
reduction of Cu(II) compared with free Cu(II) ions [5]: more rapid than reduction of free Cu(II) ions
reduction of Cu(II) compared with wild-type peptide [5]: more rapid than in the presence of Pep1

percentage of Cu(II) bound to peptide (species other than 4O coordination) [4, 9]: 75%
percentage of Cu(II) bound to peptide (species other than 4O coordination) [4, 6]: 75%
percentage of Cu(II) bound to peptide (species other than 4O coordination) [4, 7]: 75%
percentage of Cu(II) bound to peptide (species other than 4O coordination) [4, 8]: 40%
percentage of Cu(II) bound to peptide (species other than 4O coordination) ([4]; peptide:Cu(II) molar ratio 1:2): 40%
percentage of Cu(II) bound to peptide (species other than 4O coordination) ([4]; peptide:Cu(II) molar ratio 1:3): 30%
Molecule: MDHSHAMGMSYMDS (Pep5 peptide amino acid sequence)
reduction of Cu(II) compared with wild-type peptide [5]: more rapid than in the presence of Pep1

percentage of Cu(II) bound to peptide (species other than 4O coordination) [4, 9]: 60%
percentage of Cu(II) bound to peptide (species other than 4O coordination) [4, 6]: 80%
percentage of Cu(II) bound to peptide (species other than 4O coordination) [4, 7]: 85% and 80%
percentage of Cu(II) bound to peptide (species other than 4O coordination) ([4]; peptide:Cu(II) molar ratio 1:1): 70%
percentage of Cu(II) bound to peptide (species other than 4O coordination) [4, 8]: 60%
percentage of Cu(II) bound to peptide (species other than 4O coordination) ([4]; peptide:Cu(II) molar ratio 1:2): 62%
percentage of Cu(II) bound to peptide (species other than 4O coordination) ([4]; peptide:Cu(II) molar ratio 1:3): 58%
Molecule: MDHSHHMAMSYMDS (Pep2 peptide amino acid sequence)
Cu(II) reduced [5]: about 5%

Cu(II) bound to peptide ([4]; low Cu(II) concentrations): substantially all Cu(II) is bound
percentage of Cu(II) bound to peptide (species other than 4O coordination) ([4]; peptide:Cu(II) molar ratio 1:1): 80%
percentage of Cu(II) bound to peptide (species other than 4O coordination) [4, 8]: 70%
percentage of Cu(II) bound to peptide (species other than 4O coordination) ([4]; peptide:Cu(II) molar ratio 1:2): 70%
percentage of Cu(II) bound to peptide (species other than 4O coordination) ([4]; peptide:Cu(II) molar ratio 1:3): 70%
Molecule: MDHSHHMGMSYMDS (Pep1 peptide amino acid sequence)
Cu(II) reduced [5]: about 5%

Molecule: MTSSL-CMDHSHHAGMSYMDSC-MTSSL (C(MTSSL)MDHSHHAGMSYMDSC(MTSSL)-NH2; N-terminus assumed; SMILES CSCC[C@H](NC(=O)CNC(=O)[C@H](C)NC(=O)[C@H](Cc1c[nH]cn1)NC(=O)[C@H](Cc1c[nH]cn1)NC(=O)[C@H](CO)NC(=O)[C@H](Cc1c[nH]cn1)NC(=O)[C@H](CC(=O)O)NC(=O)[C@H](CCSC)NC(=O)[C@@H](N)CSSCC1=CC(C)(C)N([O])C1(C)C)C(=O)N[C@@H](CO)C(=O)N[C@@H](Cc1ccc(O)cc1)C(=O)N[C@@H](CCSC)C(=O)N[C@@H](CC(=O)O)C(=O)N[C@@H](CO)C(=O)N[C@@H](CSSCC1=CC(C)(C)N([O])C1(C)C)C(N)=O) [Pep8]
absorption at 265 nm upon addition of Cu(I) (Cu(I) binding) [3]: did not change upon addition of Cu(I)

Molecule: MTSSL-CMDHSHHMGASYMDSC-MTSSL (C(MTSSL)MDHSHHMGASYMDSC(MTSSL)-NH2; N-terminus assumed; SMILES CSCC[C@H](NC(=O)[C@H](Cc1c[nH]cn1)NC(=O)[C@H](Cc1c[nH]cn1)NC(=O)[C@H](CO)NC(=O)[C@H](Cc1c[nH]cn1)NC(=O)[C@H](CC(=O)O)NC(=O)[C@H](CCSC)NC(=O)[C@@H](N)CSSCC1=CC(C)(C)N([O])C1(C)C)C(=O)NCC(=O)N[C@@H](C)C(=O)N[C@@H](CO)C(=O)N[C@@H](Cc1ccc(O)cc1)C(=O)N[C@@H](CCSC)C(=O)N[C@@H](CC(=O)O)C(=O)N[C@@H](CO)C(=O)N[C@@H](CSSCC1=CC(C)(C)N([O])C1(C)C)C(N)=O) [Pep9]
absorption at 265 nm upon addition of Cu(I) (Cu(I) binding) [3]: did not change upon addition of Cu(I)

Molecule: MTSSL-CMDHSHHMGMSYADSC-MTSSL (C(MTSSL)MDHSHHMGMSYADSC(MTSSL)-NH2; N-terminus assumed; SMILES CSCC[C@H](NC(=O)CNC(=O)[C@H](CCSC)NC(=O)[C@H](Cc1c[nH]cn1)NC(=O)[C@H](Cc1c[nH]cn1)NC(=O)[C@H](CO)NC(=O)[C@H](Cc1c[nH]cn1)NC(=O)[C@H](CC(=O)O)NC(=O)[C@H](CCSC)NC(=O)[C@@H](N)CSSCC1=CC(C)(C)N([O])C1(C)C)C(=O)N[C@@H](CO)C(=O)N[C@@H](Cc1ccc(O)cc1)C(=O)N[C@@H](C)C(=O)N[C@@H](CC(=O)O)C(=O)N[C@@H](CO)C(=O)N[C@@H](CSSCC1=CC(C)(C)N([O])C1(C)C)C(N)=O) [Pep10]
absorption at 265 nm upon addition of Cu(I) (Cu(I) binding) [3]: did not change upon addition of Cu(I)
